Data taken from patent US20050282743A1, “Molecular interactions in cells” (Arbor Vita Corporation, priority 2001, published 2005).
Counter-ions that a name gives are not always drawn.

Biological target: T1, ZO-2 (1/3) : DNAM (22L) (Homo sapiens, UniProt Q9UDY2)
T1 construct: made in house; host or cells: E. coli (DH5α, BL21 or JM109)
T1 sequence (Q9UDY2 27-122): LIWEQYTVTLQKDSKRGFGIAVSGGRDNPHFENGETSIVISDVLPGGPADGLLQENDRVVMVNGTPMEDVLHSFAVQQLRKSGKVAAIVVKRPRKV
Experiment: G assay with FDA approved drug (Example 7, TABLE 10B)
Format: binding
Procedure: For certain of the PDZ proteins and PL proteins shown to bind together and for which Kd values had been obtained, additional testing was conducted to determine whether certain pharmaceutical compounds would act to antagonize or agonize the interactions. Assays were conducted as for the G′ assay described supra both in the presence and absence of test compound, except that 50 ul of a 10 uM solution of the biotinylated PL peptide is allowed to react with the surface bearing the PDZ-domain polypeptide instead of a 20 uM solution as specified in step (2) of the assay.
In both tables, the first column (left to right) entitled “PDZ domain” lists the gene name of GST-PDZ domain fusion (see TABLE 9). Entries having two numbers separated by a slash indicate which PDZ domain was utilized. For example, in TABLE 10A, the entry for ZO-3 is 1/3. This means that PDZ domain 1 of 3 was used.
The second column labeled “PL” indicates the name of the PDZ ligand (see TABLES 10A and 10B) interacting with the PDZ domain. The third column entitled “Drug” lists the common or trade name of pharmaceutical compound tested and found to modulate the specific PDZ-PL interaction (suppliers and chemical information are listed in TABLE 11). The final column with the heading “Change in OD” indicates the change in absorbance at 450 nm of the assay in the absence (first number) or presence (second number) of chemical compound.
Many FDA approved drugs have unknown mechanism of function. It is quite possible that some of these drugs function by disrupting or increasing PDZ/PL interactions. This possibility was examined by using the ‘G Assay’ (Example 3 section D). FDA approved drugs were incubated in the presence of the labeled peptide and compared to the same interaction without drug to determine if there was an effect on specific PDZ:PL interactions (drugs added with peptide at step 9 in Example 3D). The primary focus of this experiment was on drugs involved in treatment of depression (amitriptyline, desipramine, trimipramine, benztropine, and nortryptilline) and epilepsy (valproic acid). No modes of action are known for these drugs.
Therapeutic dose was determined by guidelines given in the Physician's Desk Reference and in the assay, 200 times this amount was used. If a dosage range was given, the upper end of the range was used. Each interaction listed in TABLES 10A & B was tested in the ‘G Assay’ (see Example 3) against each of the drugs listed in TABLE 11. The concentration of GST-fusion protein and peptide used in the assay represent the Kd and were determined by titration. These values can be found in TABLE 7. The drugs were added to the peptide before addition to the well containing the PDZ protein. Otherwise, the assay was carried out as described and read at 450 nm after 30 minutes of developing. For the sequences of the PDZs and PLs used in these tests, see TABLES 8 & 9.
List of interactions and therapeutics for which a modulation of binding was observed. Concentrations at which the GST-PDZ fusion protein and labeled peptide were used can be found in Table 7 or Table 12.

CNCCC=C1c2ccccc2CCc2ccccc21 [Nortryptilline, NORTRIPTYLINE HYDROCHLORIDE]
CHANGE IN OD: absorbance at 450 nm in presence of drug (OD in absence of drug 2.1, drug concentration per TABLE 11, read after 30 minutes): 2.1 to 0.5
antagonistic effect, binding relative to absence of drug (ZO-2 domain 1 and DNAM-1): 4.2 fold
